Laboratory results from patent US20220024964A1, “Cyclic Di-Nucleotide Compounds as STING Agonists” (Merck Sharp & Dohme Corp., priority 2018, published 2022).

Assays:
THP1 cells = test: IFN-β secretion in THP1 cell culture (5 h); assay type: cell-based, human; details: 30 μM compound, 30 uM cGAMP = 100%
Procedure: The ability of compounds to stimulate the secretion of interferon-beta from THP1 cells was measured using a human IFN-β AlphaLISA kit (Perkin Elmer, Cat. No. AL265F). The basic protocol is as follows:
A Labcyte Echo 550 acoustic dispenser was used to transfer 120 nL of compound dissolved in DMSO into the wells of an empty, sterile 384-well microplate, (Corning, Cat. No. 3712). THP1 cells (American Type Culture Collection, Cat. No. TIB202) previously frozen in Recovery Medium (Life Technologies, Cat. No. 12648-010) were thawed and immediately diluted 10-fold into 37° C. assay medium (RPMI 1640+L-Glutamine & phenol red, Life Technologies, Cat. No. 11875-085; 0.5% heat inactivated fetal bovine serum, Sigma Aldrich, Cat. No. F4135; 1 mM Sodium Pyruvate, Life Technologies, Cat. No. 11360-070; lx non-essential amino acids; Life Technologies, Cat. No. 11140-050). The cell viability and count was ascertained using a Beckman Coulter V-Cell XR cell counter. The cell suspension was centrifuged at 200×g for 5 min at RT. […]
The assay was started by dispensing 40 μL of the previously prepared cell suspension into the wells of the plate containing compounds. […] The plate was then read on a Perkin Elmer Envision (λex=680 nm, λcm=570 nm). The percent effect of the AlphaLISA signal at each compound concentration was calculated based on 30 uM cGAMP positive controls and 0.3% DMSO negative controls. […]

full-length HAQ STING = molecular target: T1, full-length HAQ STING (Homo sapiens, UniProt Q86WV6, G230A/H232R/R293Q/R71H); test: 3H-cGAMP filtration binding assay (HAQ STING); details: competition with tritiated cGAMP ligand, HAQ STING membrane
T1 construct: Full-Length HAQ STING [STING(1-379)R71H, G230A, H232R,; made in house; host or cells: Trichoplusia ni (Hi-Five) insect cells via baculovirus (virus made in Sf21); used as a membrane preparation
Text: The ability of compounds to bind STING is quantified by the ability to compete with tritiated cGAMP ligand for human STING receptor membrane using a radioactive filter-binding assay. The binding assay employs STING receptor obtained from Hi-Five cell membranes overexpressing full-length HAQ STING prepared in-house and tritiated cGAMP ligand also purified in-house.
(§1) The ability of compounds to bind STING is quantified by their ability to compete with tritiated cGAMP ligand for human STING receptor membrane using a radioactive filter-binding assay. The binding assay employs STING receptor obtained from Trichoplusia ni cell membranes (T. ni; Expression Systems, cat #94-002F, www.expressionsystems.com) overexpressing full-length HAQ STING and tritiated cGAMP ligand.
The basic HAQ STING filtration assay protocol is as follows: The compounds were serially titrated by the Hamilton STARPlus CORE in a 96-well plate (Greiner, #651201) using a 1:3 ten-point dose response format. […] Tritium levels for each reaction well were then measured using a PerkinElmer TopCount plate reader.
(§2) After normalization to controls, the percent activity for each compound concentration was calculated by measuring the amount of remaining radioactivity. […]

full-length WT STING = molecular target: T2, full-length WT STING (Homo sapiens, UniProt Q86WV6, H232R); test: 3H-cGAMP filtration binding assay (WT STING); details: competition with tritiated cGAMP ligand, WT STING membrane
T2 construct: Full-Length STING WT [STING(1-379)H232R-gg-AviTag-gs-; made in house; host or cells: Trichoplusia ni insect cells via baculovirus (virus made in Sf21); used as a membrane preparation
Procedure: as §1, with “WT” for “HAQ”
The basic WT STING filtration assay protocol is as follows: 16 nM of [^3H] c-GAMP ligand was prepared by diluting into assay buffer, and 50 uL of this working stock was manually added to each well of the assay plate. After ligand addition, 2 uL of either titrated test compound, DMSO control (Sigma #276855), or cold cGAMP control was added to the appropriate wells using a BIOMEK FX. The serially titrated compound was prepared on a Hamilton STARPlus CORE in a 96-well plate (Greiner, #651201) using a 1:3 ten-point dose response format. […] Tritium levels for each reaction well were then measured using a PerkinElmer TopCount plate reader.
as §2

T2 sequence (Q86WV6 with tags, fused parts or gaps H232R): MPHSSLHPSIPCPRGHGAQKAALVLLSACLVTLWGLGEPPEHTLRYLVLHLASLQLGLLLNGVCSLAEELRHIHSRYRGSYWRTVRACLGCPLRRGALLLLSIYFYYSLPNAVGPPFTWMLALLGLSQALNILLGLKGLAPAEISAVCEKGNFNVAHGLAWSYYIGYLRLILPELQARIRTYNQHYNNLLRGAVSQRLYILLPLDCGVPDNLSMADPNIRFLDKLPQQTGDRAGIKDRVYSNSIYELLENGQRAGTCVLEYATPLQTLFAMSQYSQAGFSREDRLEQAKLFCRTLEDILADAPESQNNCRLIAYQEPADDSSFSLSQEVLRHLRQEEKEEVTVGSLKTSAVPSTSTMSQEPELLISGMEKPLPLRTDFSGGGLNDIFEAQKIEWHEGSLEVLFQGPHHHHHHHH
T1 sequence (Q86WV6 with tags, fused parts or gaps R71H/G230A/H232R/R293Q): as the sequence (Q86WV6 with tags, fused parts or gaps H232R) above, with R71H, G230A, R293Q counted along it

Nc1nc2c(ncn2[C@@H]2O[C@@H]3COP(=O)(S)O[C@@H]4C[C@H](n5cnc6c(N)ncnc65)O[C@@H]4COP(=O)(S)O[C@H]2C3)c(=O)[nH]1 (stereo partly drawn) [Example 1, 2-amino-9-[(5S,7R,8S,12aR,14R,15aR)-14-(6-amino-9H-purin-9-yl)-2,10-dioxido-2,10-disulfanyloctahydro-12H-5,8-methanofuro[3,2-1][1,3,6,9,11,2,10]pentaoxadiphosphacyclotetradecin-7-yl]-1,9-dihydro-6H-purin-6-one]
% Effect at 30 μM relative to 2′3′-cGAMP (THP1 cells): 107%
EC50 (full-length HAQ STING): 49.1 nM
EC50 (full-length WT STING): 118 nM
